Experimental findings from patent US20250136558A1, “PYRAZINE COMPOUNDS AS IRREVERSIBLE INHIBITORS OF FLT3” (BIOMEA FUSION, INC., priority 2021, published 2025) are described below.

Type in all cases: cell-based
One assay deals with K-562. In words: Proliferation inhibition (CellTiter-Glo) in K-562 cells. The following applies: Homo sapiens, K562, 96 h, K-562 CML cells, no FLT3 mutations, IC50 (4 days). An excerpt:
(§1) The Proliferation Inhibitory Effect was Investigated in Human AML Cell Lines MOLM-13 (AddexBio: C0003003) [REF: Pubmed: 9305600] and MV-4-11 (ATCC: CRL-9591) [REF PMID: 3496132], and CML cell line […] (ATCC: CRL-3343) [REF PMID: 163658]. Molm-13 is heterozygous for FLT3-ITD mutation, while MV4-11 is homozygous for FLT3-ITD [PMID: 12529668]. […] Cells were maintained in RPMI-1640 medium (ThermoFisher catalog no. 61870036) supplemented with 10% of Heat Inactivated FBS (ThermoFisher catalog no.A31605) and 1% Pen-Strep (Thermofisher catalog no. 10378016) and cultured at 37° C. in a humidified incubator with 5% CO2. Cell lines were […], and the cells were maintained in a range 70%-80% confluency.
(§2) ATP is present in all metabolically active cells and is considered as a marker for cell viability and proliferation. Metabolic cell activity was determined using the CellTiter-Glo kit (Promega catalog no. G7572), an ATP monitoring system based on the production of luminescence by the reaction of ATP with added UltraGlo® recombinant luciferase (Kawano et al., 2016, PLOS One, 8; 11(7):e0158888), according to the supplier's experimental recommendations. The assay was based on a 96 well plate format.
(§3) Test compounds were dissolved at 10 mM in DMSO (Sigma catalog no. D8418; purity 299.9%) and stored at −20° C. Eight concentrations of test compound were assessed in duplicate in an individual test occasion in parallel in the selected cell lines. Gilteratinib and FF-10101 were used as reference compounds and tested in duplicate at eight concentrations. 100% of proliferation is represented by the untreated cells (0.2% DMSO).
(§4) On the day of the experiment (TO), cells were quantified with the cell viability analyser NucleoCounter (Chemometec NC-200) and diluted with fresh medium to obtain the cell density of about 10,000 cells per 200 μL medium. 200 μL of cell suspension were added into wells in the 96 well plate.
(§5) After 2 hours from seeding cells, compounds were added using a D300e compound dispenser (Life Sciences Tecan D300) at desired concentrations with shaking between each compound dispensed. Cell plates containing 200 μL/well suspension were incubated at 37° C. in a humidified incubator with […].
(§6) […] Contents were mixed for 5 min on an orbital shaker to induce cell lysis, and then incubated at room temperature for an additional 10 min in the dark to stabilize the luminescent signal. Luminescence was read by using a GloMax GM300 plate reader (Promega) using the luminescence for 96 well plate standard protocol.
(§7) Results were analysed by GraphPad (Prism) and IC50 values were calculated by non-linear regression using four parameter-logistic equation.
(In ATP-based viability assays light output follows the ATP content of the culture.)

For another assay, the system named is MV-4-11. The assay is described as follows: Proliferation inhibition (CellTiter-Glo) in MV-4-11 cells. The following applies: Homo sapiens, MV4-11, 96 h, MV-4-11 AML cells, homozygous FLT3-ITD, IC50 (4 days).
Source text: as §1, §2, §3, §4, §5, §6, §7

For a further assay, the system named is MOLM-13. The assay is described as follows: Proliferation inhibition (CellTiter-Glo) in MOLM-13 cells. Particulars: Homo sapiens, 96 h, MOLM-13 AML cells, heterozygous FLT3-ITD, IC50 (4 days).
Source text: as §1, §2, §3, §4, §5, §6, §7

Usually IC50 stands for the concentration that inhibits the measured activity by half. Higher therefore signals weaker potency in that assay. Take `CCc1nc(C(N)=O)c(Nc2cccc(OCCCNC(=O)[C@H](C)N(C)C(=O)/C=C/CN(C)C)c2)nc1NC(C)C` [Compound 124, (S,E)-3-((3-(3-(2-(4-(dimethylamino)-N-methylbut-2-enamido)propanamido)propoxy)phenyl)amino)-6-ethyl-5-(isopropylamino)pyrazine-2-carboxamide]: the IC50 in the assay with K-562 is above 500 nM; in the assay on MV-4-11, 1 to 10 nM; in the assay with MOLM-13 it was below 1 nM.

Regarding `CCc1nc(C(N)=O)c(Nc2cccc(C#CCNC(=O)[C@H](C)N(C)C(=O)/C=C/CN(C)C)c2)nc1NC1CCOCC1` [Compound 18, (S,E)-3-((3-(3-(2-(4-(Dimethylamino)-N-methylbut-2-enamido)propanamido)prop-1-yn-1-yl)phenyl)amino)-6-ethyl-5-((tetrahydro-2H-pyran-4-yl)amino)pyrazine-2-carboxamide], the IC50 was above 500 nM with K-562, below 1 nM in the assay on MV-4-11 and 1 to 10 nM with MOLM-13.

As for `CCc1nc(C(N)=O)c(Nc2cccc(OC(C)CCNC(=O)[C@H](C)N(C)C(=O)/C=C/CN(C)C)c2)nc1NC1CCOCC1` (stereo partly drawn) [Compound 115, 3-[3-[3-[[(2S)-2-[[(E)-4-(dimethylamino)but-2-enoyl]-methyl-amino]propanoyl]amino]-1-methyl-propoxy]anilino]-6-ethyl-5-(tetrahydropyran-4-ylamino)pyrazine-2-carboxamide], the 50% inhibitory concentration (IC50) in the assay with K-562 was above 500 nM; with MV-4-11, below 1 nM; with MOLM-13, 1 to 10 nM.

Consider `CC#CC(=O)NCC#Cc1cccc(Nc2nc(NC3CCOCC3)c(CC)nc2C(N)=O)c1` [Compound 14, 3-((3-(3-(But-2-ynamido)prop-1-yn-1-yl)phenyl)amino)-6-ethyl-5-((tetrahydro-2H-pyran-4-yl)amino)pyrazine-2-carboxamide], for which the IC50 is above 500 nM with K-562, 10 to 100 nM in the assay with MV-4-11 and 10 to 100 nM with MOLM-13.

As for `CCc1nc(C(N)=O)c(Nc2cc(CCNC(=O)[C@H](C(C)C)N(C)C(=O)/C=C/CN(C)C)cc(OC)c2)nc1NC1CCOCC1` [Compound 131, (S,E)-3-((3-(2-(2-(4-(dimethylamino)-N-methylbut-2-enamido)-3-methylbutanamido)ethyl)-5-methoxyphenyl)amino)-6-ethyl-5-((tetrahydro-2H-pyran-4-yl)amino)pyrazine-2-carboxamide], the results for the IC50 in the assay on K-562, in the assay with MV-4-11 and in the assay with MOLM-13 were above 500 nM, 1 to 10 nM and 10 to 100 nM, respectively.

Turning to `CCc1nc(C(N)=O)c(Nc2cccc(OCCCNC(=O)[C@H](C)N(C)C(=O)/C=C/CN(C)C)c2)nc1C1CC1` [Compound 125, (S,E)-5-cyclopropyl-3-((3-(3-(2-(4-(dimethylamino)-N-methylbut-2-enamido)propanamido)propoxy)phenyl)amino)-6-ethylpyrazine-2-carboxamide], the IC50 in the assay with K-562 is above 500 nM; in the assay with MV-4-11, 1 to 10 nM; with MOLM-13, 10 to 100 nM.

As to `CCc1nc(C(N)=O)c(Nc2cc(F)cc(OCCCNC(=O)[C@H](C)N(C)C(=O)/C=C/CN(C)C)c2)nc1N(C)C` [Compound 149, (S,E)-5-(dimethylamino)-3-((3-(3-(2-(4-(dimethylamino)-N-methylbut-2-enamido)propanamido)propoxy)-5-fluorophenyl)amino)-6-ethylpyrazine-2-carboxamide], the results for the 50% inhibitory concentration (IC50) with K-562, with MV-4-11 and in the assay on MOLM-13 were above 500 nM, below 1 nM and 1 to 10 nM, respectively.

Take `CCc1nc(C(N)=O)c(Nc2cccc(OCCCNC(=O)[C@H](C)N(C)C(=O)/C=C/CN3CC(F)(F)C3)c2)nc1NC1CCOCC1` [Compound 147, (S,E)-3-((3-(3-(2-(4-(3,3-difluoroazetidin-1-yl)-N-methylbut-2-enamido)propanamido)propoxy)phenyl)amino)-6-ethyl-5-((tetrahydro-2H-pyran-4-yl)amino)pyrazine-2-carboxamide]: the IC50 was above 500 nM in the assay on K-562, 10 to 100 nM in the assay with MV-4-11 and above 500 nM in the assay on MOLM-13.

`CC#CC(=O)N(C)[C@@H](C)C(=O)NCCc1cccc(Nc2nc(C)c(CC)nc2C(N)=O)c1` [Compound 206, 3-[3-[2-[[(2S)-2-[but-2-ynoyl(methyl)amino]propanoyl]amino]ethyl]anilino]-6-ethyl-5-methyl-pyrazine-2-carboxamide]: the half-inhibitory concentration (IC50) with K-562 was above 500 nM; in the assay with MV-4-11, 10 to 100 nM; in the assay with MOLM-13, above 500 nM.

In the case of `CCc1nc(C(N)=O)c(Nc2cccc(OCCCNC(=O)[C@H](C)N(C)C(=O)/C=C/CN(C)C)c2)nc1C` [Compound 126, (S,E)-3-((3-(3-(2-(4-(dimethylamino)-N-methylbut-2-enamido)propanamido)propoxy)phenyl)amino)-6-ethyl-5-methylpyrazine-2-carboxamide], the 50% inhibitory concentration (IC50) with K-562 is above 500 nM; in the assay with MV-4-11, 1 to 10 nM; in the assay on MOLM-13 it was 10 to 100 nM.

Regarding `CC#CC(=O)N(C)[C@@H](C)C(=O)NCCOc1cccc(Nc2nc(NC3CCOCC3)c(CC)nc2C(N)=O)c1` [Compound 104, 3-[3-[2-[[(2S)-2-[but-2-ynoyl(methyl)amino]propanoyl]amino]ethoxy]anilino]-6-ethyl-5-(tetrahydropyran-4-ylamino)pyrazine-2-carboxamide], the IC50 is above 500 nM in the assay on K-562, 1 to 10 nM in the assay with MV-4-11 and 1 to 10 nM in the assay on MOLM-13.

In the case of `CC#CC(=O)N(C)CCCC(=O)NCCc1cc(Nc2nc(NC3CCOCC3)c(CC)nc2C(N)=O)cc(OC)c1` [Compound 33, 3-[3-[2-[4-[but-2-ynoyl(methyl)amino]butanoylamino]ethyl]-5-methoxy-anilino]-6-ethyl-5-(tetrahydropyran-4-ylamino)pyrazine-2-carboxamide], the half-maximal inhibitory concentration (IC50) was above 500 nM in the assay on K-562, 10 to 100 nM in the assay on MV-4-11 and 10 to 100 nM in the assay with MOLM-13.

For the compound `CCc1nc(C(N)=O)c(Nc2cccc(CCNC(=O)C3(N(C)C(=O)/C=C/CN(C)C)CCC3)c2)nc1C` [Compound 210, (E)-3-((3-(2-(1-(4-(dimethylamino)-N-methylbut-2-enamido)cyclobutane-1-carboxamido)ethyl)phenyl)amino)-6-ethyl-5-methylpyrazine-2-carboxamide], the figures for the IC50 with K-562, in the assay on MV-4-11 and in the assay on MOLM-13 were above 500 nM, 10 to 100 nM and above 500 nM, respectively.

Take `CCc1nc(C(N)=O)c(Nc2cccc(OCCCNC(=O)[C@H](C)N(C)C(=O)/C=C/CN(C)C)c2)nc1NC1CCOCC1` [Compound 37, 3-[3-[3-[[(2S)-2-[[(E)-4-(dimethylamino)but-2-enoyl]-methyl-amino]propanoyl]amino]propoxy]anilino]-6-ethyl-5-(tetrahydropyran-4-ylamino)pyrazine-2-carboxamide]: the IC50 was above 500 nM in the assay on K-562, below 1 nM in the assay with MV-4-11 and below 1 nM in the assay on MOLM-13.

As for `CCc1nc(C(N)=O)c(Nc2cccc(OCCCNC(=O)[C@H](C)N(C)C(=O)/C=C/CN(C)C)c2)nc1N(C)C` [Compound 118, (S,E)-5-(dimethylamino)-3-((3-(3-(2-(4-(dimethylamino)-N-methylbut-2-enamido)propanamido)propoxy)phenyl)amino)-6-ethylpyrazine-2-carboxamide], the IC50 was above 500 nM with K-562, below 1 nM in the assay on MV-4-11 and 1 to 10 nM with MOLM-13.
